# PubChem BioAssay (NCI)
#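 Briefly, cells in 96-well plates were exposed to five compound concentrations for 48 h, and endpoints were estimated by linear interpolation. GI50 is the concentration that inhibits growth by half. TGI: concentration producing complete growth inhibition.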
# How the values were obtained:
# Experiment in all cases: inhibition of tumour cell growth, NCI panel, 48 h
# OVCAR-8 ovarian = tested on: OVCAR-8 ovarian
# EKVX NSCLC = tested on: EKVX NSCLC
# HOP-62 NSCLC = tested on: HOP-62 NSCLC
# SK-MEL-2 melanoma = tested on: SK-MEL-2 melanoma
# HCT-15 colon = tested on: HCT-15 colon
# UACC-62 melanoma = tested on: UACC-62 melanoma
# HCC-2998 colon = tested on: HCC-2998 colon
# SF-268 CNS = tested on: SF-268 CNS
# RXF 393 renal = tested on: RXF 393 renal
Compound,GI50 (OVCAR-8 ovarian) [µM],TGI (OVCAR-8 ovarian) [µM],GI50 (EKVX NSCLC) [µM],TGI (EKVX NSCLC) [µM],GI50 (HOP-62 NSCLC) [µM],TGI (HOP-62 NSCLC) [µM],GI50 (SK-MEL-2 melanoma) [µM],TGI (SK-MEL-2 melanoma) [µM],GI50 (HCT-15 colon) [µM],GI50 (UACC-62 melanoma) [µM],TGI (UACC-62 melanoma) [µM],GI50 (HCC-2998 colon) [µM],TGI (HCC-2998 colon) [µM],GI50 (SF-268 CNS) [µM],TGI (SF-268 CNS) [µM],GI50 (RXF 393 renal) [µM],TGI (RXF 393 renal) [µM],TGI (HCT-15 colon) [µM]
COc1ccc2nc3cccc([N+](=O)[O-])c3c(NCCNCCN(C)C)c2c1,0.044,0.277,0.261,1.43,0.183,0.698,0.0308,0.107,0.131,0.121,0.3,0.0269,0.115,0.161,0.715,0.0342,0.122,–
CC(C)(C)c1nc(-c2cccc(NS(=O)(=O)c3c(F)cccc3F)c2F)c(-c2ccnc(N)n2)s1,49.1,> 100,–,–,47.2,> 100,–,–,22.2,–,–,24.1,86.7,51,> 100,–,–,81.1
O=C1C=C(Nc2ccc(S(=O)(=O)Nc3ncccn3)cc2)c2ccccc2C1=O,–,42.4,–,67.1,–,54.6,–,85.2,–,–,32.9,–,36.6,–,59.7,–,48,47
O=C1Nc2ccccc2/C1=C/c1cn(CC(O)Cn2cc(/C=C3\C(=O)Nc4ccccc43)c3ccccc32)c2ccccc12 (centres undefined),–,–,1.81,3.78,1.41,3.06,1.77,3.49,1.77,1.64,3.16,2.28,5.21,1.75,3.92,2.04,3.75,3.71
CC/C(Cc1ccccc1)=C(/c1ccc(O)cc1)c1ccc(OCCN2CCCC2)cc1,2.39,5.39,1.44,2.89,1.9,3.58,2.04,3.84,1.51,2.03,4.12,1.54,2.98,1.61,3.35,1.56,3.13,3.08
COc1cc(Nc2ncnc(Nc3ccc4c(n3)NC(=O)C(C)(C)O4)n2)cc(OC)c1OC,10.9,> 100,–,–,0.555,> 66.5,> 100,> 100,1.7,2.36,> 100,> 100,> 100,0.544,> 100,0.148,0.622,> 100
CCC[CH2][Sn]([CH2]CCC)([CH2]CCC)[O]C(=O)C(OC)c1ccccc1 (centres undefined),0.141,0.272,0.0277,0.228,0.135,0.27,–,–,0.0864,0.0913,0.215,0.0381,0.144,0.112,0.327,0.0561,0.194,0.211
Cc1c(C)c2c(c(C)c1OCC(=O)O)CC[C@@](C)(CCC[C@@H](C)CCC[C@@H](C)CCCC(C)C)O2,59.4,152,64.2,148,62.2,161,64.4,142,40.8,61.1,126,102,224,87.8,196,61.6,137,120
C=Cc1c(C)c2cc3[nH]c(cc4nc(cc5nc(cc1[nH]2)C(C)=C5CCC(=O)N(CC)CC)C(CCC(=O)N(CC)CC)=C4C)c(C)c3C=C,–,> 100,–,> 100,–,> 100,–,> 100,–,–,> 100,–,> 100,–,–,–,> 100,> 100
Oc1c(O)c(Cl)c(Cl)c(Cl)c1Cl,2.89,13.9,2.95,18.9,4.54,17.3,4.1,15.2,3.56,2.95,10.2,16.3,30.7,3.09,> 100,1.61,13.9,19.4
O=C(Oc1ccccc1)C(Br)C(Br)c1ccccc1 (centres undefined),6.11,21.8,11.9,24.8,14.5,28.3,16.1,33.1,2.32,5.51,18.2,11.8,24.7,4.15,15.2,1.74,3.23,6.24
C=C1C(=O)O[C@H]2[C@H]1CC/C(COC(=O)NCCc1cccc(OC)c1)=C\CC[C@@]1(C)O[C@@H]21,2.26,8.03,1.78,4.25,4.39,16.6,1.73,3.65,1.02,–,–,1.68,3.29,1.78,4.91,0.673,2.38,2.62
CCOc1ccc(C(C)=O)cc1NC(=O)c1cccc(-c2nnn(CC)n2)c1,1.29,> 100,0.83,> 100,0.39,18.1,0.44,24,0.419,0.615,23.4,1.71,> 100,0.901,> 100,0.61,11.6,> 100
Nc1ccc(-c2ccc3ncc4ccc(=O)n(-c5cccc(C(F)(F)F)c5)c4c3c2)cn1,< 0.01,> 33.7,–,–,< 0.01,1.47,< 0.01,0.0572,< 0.01,< 0.01,0.026,< 0.0118,1.6,< 0.0104,4.61,< 0.01,0.0443,11.7
